“Also recorded” adds a separate entry of the source. Where two headings read alike, the source gives them in different places.

Series [1] addresses T1, UGT1A7 (Homo sapiens, UniProt Q9HAW7).
T1 sequence (Q9HAW7 26-530): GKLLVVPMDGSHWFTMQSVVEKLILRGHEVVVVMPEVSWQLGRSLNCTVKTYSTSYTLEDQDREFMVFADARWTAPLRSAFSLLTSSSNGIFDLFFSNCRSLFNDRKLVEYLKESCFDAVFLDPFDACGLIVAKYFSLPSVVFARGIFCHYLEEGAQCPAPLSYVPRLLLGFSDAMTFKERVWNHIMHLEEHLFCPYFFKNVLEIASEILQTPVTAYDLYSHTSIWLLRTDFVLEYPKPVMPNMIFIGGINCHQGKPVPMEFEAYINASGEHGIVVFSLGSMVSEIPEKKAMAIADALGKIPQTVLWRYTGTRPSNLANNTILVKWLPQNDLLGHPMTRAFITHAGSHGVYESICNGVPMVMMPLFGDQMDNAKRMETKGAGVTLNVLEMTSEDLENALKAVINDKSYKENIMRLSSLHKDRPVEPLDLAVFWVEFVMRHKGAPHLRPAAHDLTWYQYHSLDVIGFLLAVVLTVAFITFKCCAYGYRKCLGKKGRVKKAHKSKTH
Briefly: Glucuronidation by recombinant human UGT1A7. As to conditions: UGT1A7, substrate 10 μM.

In the next series the target is T2, UGT1A9 (Homo sapiens, UniProt O60656).
T2 sequence (O60656 26-530): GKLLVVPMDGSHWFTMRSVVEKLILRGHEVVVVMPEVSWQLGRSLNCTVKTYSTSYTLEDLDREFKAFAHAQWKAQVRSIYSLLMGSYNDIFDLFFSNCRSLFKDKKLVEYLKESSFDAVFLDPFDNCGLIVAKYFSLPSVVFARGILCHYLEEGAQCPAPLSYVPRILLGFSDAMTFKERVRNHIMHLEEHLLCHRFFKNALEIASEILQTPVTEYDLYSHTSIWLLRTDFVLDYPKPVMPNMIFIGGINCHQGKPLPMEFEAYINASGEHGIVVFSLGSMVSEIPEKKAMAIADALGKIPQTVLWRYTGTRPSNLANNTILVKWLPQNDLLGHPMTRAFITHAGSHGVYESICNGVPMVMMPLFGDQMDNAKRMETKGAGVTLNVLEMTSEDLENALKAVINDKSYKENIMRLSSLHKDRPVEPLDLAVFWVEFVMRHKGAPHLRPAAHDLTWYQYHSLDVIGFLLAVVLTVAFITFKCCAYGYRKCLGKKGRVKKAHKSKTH
Briefly: Glucuronidation by recombinant human UGT1A9.

The next series has as its target T3, UGT2B7 (Homo sapiens, UniProt P16662).
T3 sequence (P16662 24-529): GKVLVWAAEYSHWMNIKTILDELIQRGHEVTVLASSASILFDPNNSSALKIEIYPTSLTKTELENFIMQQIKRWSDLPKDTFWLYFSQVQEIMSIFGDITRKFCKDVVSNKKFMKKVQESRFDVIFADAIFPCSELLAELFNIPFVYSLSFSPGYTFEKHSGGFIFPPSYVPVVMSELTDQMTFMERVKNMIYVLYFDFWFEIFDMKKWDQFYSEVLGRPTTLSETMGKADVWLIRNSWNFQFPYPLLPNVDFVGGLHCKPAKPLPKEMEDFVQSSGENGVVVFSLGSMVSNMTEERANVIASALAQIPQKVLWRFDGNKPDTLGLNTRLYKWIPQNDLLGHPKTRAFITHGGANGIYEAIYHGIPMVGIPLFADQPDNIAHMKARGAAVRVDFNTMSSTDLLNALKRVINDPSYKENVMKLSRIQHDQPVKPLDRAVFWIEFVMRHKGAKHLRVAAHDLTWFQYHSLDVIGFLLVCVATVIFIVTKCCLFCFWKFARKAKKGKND
Briefly: Glucuronidation by recombinant human UGT2B7. As to conditions: UGT2B7, substrate 10 μM.

In series [2] the test system is UGT 1A1, 1A3, 1A6, 1A7, 1A8, 1A9, 1A10 and 2B7. Description: Glucuronidation by the panel of 8 recombinant human UGT isoforms. As to conditions: substrate 10 μM.
The target of the next series is T4, UGT1A1 (Homo sapiens, UniProt P22309).
T4 sequence (P22309 26-533): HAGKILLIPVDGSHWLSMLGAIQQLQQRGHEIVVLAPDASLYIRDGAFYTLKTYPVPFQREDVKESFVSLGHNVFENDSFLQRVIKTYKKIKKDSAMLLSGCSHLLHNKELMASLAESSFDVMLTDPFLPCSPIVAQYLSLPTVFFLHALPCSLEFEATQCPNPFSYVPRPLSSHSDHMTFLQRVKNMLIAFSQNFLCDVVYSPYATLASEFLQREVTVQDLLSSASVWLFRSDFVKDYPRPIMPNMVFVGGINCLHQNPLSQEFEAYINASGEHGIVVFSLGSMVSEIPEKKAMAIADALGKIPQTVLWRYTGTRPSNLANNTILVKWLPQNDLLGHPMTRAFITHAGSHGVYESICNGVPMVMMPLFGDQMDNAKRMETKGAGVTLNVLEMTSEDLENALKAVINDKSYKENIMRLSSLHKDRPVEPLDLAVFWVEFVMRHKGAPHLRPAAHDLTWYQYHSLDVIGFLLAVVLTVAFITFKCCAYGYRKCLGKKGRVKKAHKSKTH
Particulars: 10 μM, pH 7.4.

Another series has as its target T5, UGT1A3 (Homo sapiens, UniProt P35503).
T5 sequence (P35503 29-534): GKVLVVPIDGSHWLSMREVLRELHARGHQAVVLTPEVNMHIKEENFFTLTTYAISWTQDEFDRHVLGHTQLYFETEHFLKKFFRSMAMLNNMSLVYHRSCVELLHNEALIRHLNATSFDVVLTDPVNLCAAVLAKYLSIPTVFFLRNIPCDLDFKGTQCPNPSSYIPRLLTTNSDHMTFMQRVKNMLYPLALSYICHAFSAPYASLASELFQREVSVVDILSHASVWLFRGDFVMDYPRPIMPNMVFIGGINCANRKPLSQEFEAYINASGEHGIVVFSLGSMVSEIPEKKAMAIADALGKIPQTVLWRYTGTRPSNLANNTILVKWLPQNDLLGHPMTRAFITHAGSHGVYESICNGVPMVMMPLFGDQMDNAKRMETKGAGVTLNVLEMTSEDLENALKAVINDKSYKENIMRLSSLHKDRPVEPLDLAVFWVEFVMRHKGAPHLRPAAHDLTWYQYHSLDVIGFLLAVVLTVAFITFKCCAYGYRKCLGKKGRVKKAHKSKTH
Particulars: pH 7.4.

Series [3] addresses T1, UGT1A7. As to conditions: 10 μM, pH 7.4.

In the case of `O=c1c(O)c(-c2ccc(O)cc2)oc2cc(O)cc(O)c12` [5,7,4'THFnol, 3,5,7,4’-tetrahydroxyflavone], the Hydroxyl positions glucuronidated result was “glucuronidated 3-O, 7-O and 4’-O” at UGT1A7 [1]; “glucuronidated only 3-O and 7-O positions” at UGT1A9 (UGT1A9, substrate 10 μM); “glucuronidated only 7-O and 4’-O” on UGT2B7. Also, the “Degree of regiospecificity (major glucuronide in bracket)” value at UGT1A9 (UGT1A9, substrate 2.5 μM) is given as “Moderate (3-O)”; at UGT1A9 (UGT1A9, substrate 2.5 μM, listed as 5,7,4’THFnol), “moderate regiospecificity for glucuronidation of 3-O position”; on UGT1A9 (UGT1A9, substrate 10 μM), “Weak (3-O)”; at UGT1A9 (UGT1A9, substrate 10 μM, listed as 5,7,4’THFnol) it was “only weakly preferred 3-O position; also recorded: weak regiospecificity for glucuronidation of 3-O position”. For the same compound, the “Degree of regiospecificity (3-O vs 7-O)” value at UGT1A9 (UGT1A9, substrate 35 μM) is “no regiospecificity”. Further, the “Glucuronidation and regiospecificity across the 8 UGT isoforms” value in series [2] was 5-O position was not significantly glucuronidated by any isoform.

On to `O=c1cc(-c2ccccc2)oc2cc(O)cc(O)c12` [5,7DHF, 5,7-dihydroxyflavone], for which the Hydroxyl positions glucuronidated entry on UGT1A1, at UGT1A3 (10 μM) and on UGT1A7 [3] was “glucuronidated 7-O position only” in each case. For the same compound, the “Degree of regiospecificity (major glucuronide in bracket)” value at UGT1A3 (2.5 μM) is “Dominant (7-O)”.
